Results as given in PubChem BioAssay AID330 (DTP/NCI, 2004).
Where “and” joins values, the source holds several entries; their conditions need not be identical. Equal values may be shown once. Inconclusive results and toxic doses are left out. The calls were made as follows: active = survival T/C of 150% or more; inactive = T/C below 125% in these data.

Tested on: P388 leukemia ip, CD2F1 mice, survival T/C
Test: NCI In Vivo Anticancer Drug Screen. Data for tumor model P388 Leukemia (intraperitoneal) in CD2F1 (CDF1) mice
Conditions: endpoint: median survival time, higher = longer survival
Summary of the method: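 Mice carrying the transplanted tumor received test compound or vehicle. Survival was recorded in each group, and the value is the treated-group measurement divided by that of the vehicle-treated control group.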

[1] = dose: 50.0 mg/kg/injection, schedule: Q01DX009 (ip), vehicle: saline
[2] = dose: 100.0 mg/kg/injection, schedule: Q01DX009 (ip), vehicle: saline
[3] = dose: 200.0 mg/kg/injection, schedule: Q01DX009 (ip), vehicle: saline
[4] = dose: 50.0 mg/kg/injection, schedule: Q01DX009 (ip), vehicle: saline with Tween-80
[5] = dose: 100.0 mg/kg/injection, schedule: Q01DX009 (ip), vehicle: saline with Tween-80
[6] = dose: 200.0 mg/kg/injection, schedule: Q01DX009 (ip), vehicle: saline with Tween-80
[7] = dose: 50.0 mg/kg/injection, schedule: Q01DX005 (ip), vehicle: Klucel (hydroxypropylcellulose) (HPC)
[8] = dose: 100.0 mg/kg/injection, schedule: Q01DX005 (ip), vehicle: Klucel (hydroxypropylcellulose) (HPC)
[9] = dose: 200.0 mg/kg/injection, schedule: Q01DX005 (ip), vehicle: Klucel (hydroxypropylcellulose) (HPC)
[10] = dose: 60.0 mg/kg/injection, schedule: Q01DX005 (ip), vehicle: saline with Tween-80
[11] = dose: 120.0 mg/kg/injection, schedule: Q01DX005 (ip), vehicle: saline with Tween-80
[12] = dose: 240.0 mg/kg/injection, schedule: Q01DX005 (ip), vehicle: saline with Tween-80
[13] = dose: 100.0 mg/kg/injection, schedule: Q04DX002 (ip), vehicle: saline with Tween-80
[14] = dose: 50.0 mg/kg/injection, schedule: Q01DX009 (ip), vehicle: Klucel (hydroxypropylcellulose) (HPC)
[15] = dose: 100.0 mg/kg/injection, schedule: Q01DX009 (ip), vehicle: Klucel (hydroxypropylcellulose) (HPC)

Measured: T/C

Cc1onc(-c2ccccc2)c1C(=O)c1ccccc1
inactive: [1] 99 % of control | [2] 100 % of control | [3] 99 % of control

ClCCCCCCOC1CCCCO1 (centres undefined)
inactive: [4] 110 % of control | [5] 106 % of control | [6] 97 % of control

NC(=O)CC1Cc2ccc3ccc(O)cc3c2C1=O (centres undefined)
inactive: dose: 12.5 mg/kg/injection, schedule: Q01DX009 (ip), vehicle: distilled water + Tween-80 100 % of control | dose: 25.0 mg/kg/injection, schedule: Q01DX009 (ip), vehicle: distilled water + Tween-80 97 % of control | dose: 50.0 mg/kg/injection, schedule: Q01DX009 (ip), vehicle: distilled water + Tween-80 93 % of control | dose: 100.0 mg/kg/injection, schedule: Q01DX009 (ip), vehicle: distilled water + Tween-80 94 % of control | dose: 200.0 mg/kg/injection, schedule: Q01DX009 (ip), vehicle: distilled water + Tween-80 95 % of control

CCN(CC)CCOC(=O)C(OCC(C)C)(c1ccccc1)c1ccccc1
inactive: [7] 110 % of control | [8] 108 % of control

O=C1C(c2ccccc2)=c2c(c3ccccc3c3ccccc23)=C1c1ccccc1
inactive: [7] 99 % of control | dose: 50.0 mg/kg/injection, schedule: Q01DX005 (ip), vehicle: Klucel + Tween-80 89 % of control and 95 % of control | [8] 98 % of control | dose: 100.0 mg/kg/injection, schedule: Q01DX005 (ip), vehicle: Klucel + Tween-80 89 % of control and 104 % of control | [9] 95 % of control | dose: 200.0 mg/kg/injection, schedule: Q01DX005 (ip), vehicle: Klucel + Tween-80 106 % of control

CC(/C=N\N=C(N)N)=N/NC(N)=O
inactive: [1] 92 % of control | [2] 108 % of control | [3] 115 % of control

Nc1ccc(C(=O)CCCN2CCCCC2)cc1
inactive: dose: 12.5 mg/kg/injection, schedule: Q01DX009 (ip), vehicle: saline 104 % of control | dose: 12.5 mg/kg/injection, schedule: Q04DX003 (ip), vehicle: saline 91 % of control | dose: 25.0 mg/kg/injection, schedule: Q01DX009 (ip), vehicle: saline 95 % of control | dose: 25.0 mg/kg/injection, schedule: Q04DX003 (ip), vehicle: saline 95 % of control | [1] 90 % of control | dose: 50.0 mg/kg/injection, schedule: Q04DX003 (ip), vehicle: saline 91 % of control

CNC(=O)Sc1nnnc2ccccc12
inactive: dose: 100.0 mg/kg/injection, schedule: Q01DX001 (ip), vehicle: saline with Tween-80 109 % of control | dose: 200.0 mg/kg/injection, schedule: Q01DX001 (ip), vehicle: saline with Tween-80 104 % of control | dose: 400.0 mg/kg/injection, schedule: Q01DX001 (ip), vehicle: saline with Tween-80 118 % of control

COc1cc([N+](=O)[O-])ccc1NC(=O)C(F)(F)F
inactive: [10] 100 % of control | [11] 104 % of control | [12] 101 % of control

CCOC(=O)C1CC(=O)SC1=O (centres undefined)
inactive: dose: 25.0 mg/kg/injection, schedule: Q04DX002 (ip), vehicle: saline with Tween-80 101 % of control | dose: 50.0 mg/kg/injection, schedule: Q04DX002 (ip), vehicle: saline with Tween-80 100 % of control | [13] 99 % of control

O=Cc1ccccc1-c1ccccc1C=O
inactive: [13] 106 % of control | dose: 200.0 mg/kg/injection, schedule: Q04DX002 (ip), vehicle: saline with Tween-80 103 % of control

CCCCCCCc1c(C)[nH]c2cc(OC)ccc2c1=O
inactive: [4] 93 % of control | [5] 95 % of control | [6] 94 % of control

CCC/C(=N\NC(N)=NC)c1ccc(Cl)cc1
inactive: dose: 25.0 mg/kg/injection, schedule: Q04DX002 (ip), vehicle: saline 102 % of control | dose: 50.0 mg/kg/injection, schedule: Q04DX002 (ip), vehicle: saline 93 % of control

Nc1cc2c3ccccc3ccc2c2ccccc12
inactive: dose: 25.0 mg/kg/injection, schedule: Q01DX005 (ip), vehicle: Klucel (hydroxypropylcellulose) (HPC) 104 % of control | [7] 107 % of control | [8] 109 % of control | [9] 105 % of control

COc1cc(N=Nc2c(Cl)cc([N+](=O)[O-])cc2Cl)c([OH+]C)cc1[N+]#N.COc1cc(N=Nc2c(Cl)cc([N+](=O)[O-])cc2Cl)c([OH+]C)cc1[N+]#N.[Cl][Zn][Cl]
inactive: [1] 111 % of control and 115 % of control | [2] 120 % of control and 122 % of control | [3] 119 % of control and 124 % of control | dose: 400.0 mg/kg/injection, schedule: Q01DX009 (ip), vehicle: saline 119 % of control

COc1ccccc1N=c1scc(C)n1C
inactive: [14] 111 % of control | [15] 109 % of control | dose: 200.0 mg/kg/injection, schedule: Q01DX009 (ip), vehicle: Klucel (hydroxypropylcellulose) (HPC) 118 % of control

COc1ccc2oc3c(ccc(=O)n3C)c(=O)c2c1
inactive: dose: 0.69 mg/kg/injection, schedule: Q01DX001 (ip), vehicle: saline with Tween-80 99 % of control | dose: 138.0 mg/kg/injection, schedule: Q01DX001 (ip), vehicle: saline with Tween-80 96 % of control | dose: 276.0 mg/kg/injection, schedule: Q01DX001 (ip), vehicle: saline with Tween-80 91 % of control

CS(=O)(=O)OCCCCC/C=C/CCCCCCC1C=CCC1 (centres undefined)
inactive: dose: 100.0 mg/kg/injection, schedule: Q01DX001 (ip), vehicle: saline 98 % of control | dose: 200.0 mg/kg/injection, schedule: Q01DX001 (ip), vehicle: saline 99 % of control | dose: 400.0 mg/kg/injection, schedule: Q01DX001 (ip), vehicle: saline 100 % of control

Cn1/c(=N\NC(=O)c2ccncc2)sc2ccccc21
inactive: dose: 6.25 mg/kg/injection, schedule: Q01DX009 (ip), vehicle: Klucel (hydroxypropylcellulose) (HPC) 110 % of control | dose: 12.5 mg/kg/injection, schedule: Q01DX009 (ip), vehicle: Klucel (hydroxypropylcellulose) (HPC) 107 % of control | dose: 25.0 mg/kg/injection, schedule: Q01DX009 (ip), vehicle: Klucel (hydroxypropylcellulose) (HPC) 115 % of control

C=CCCCCn1c2ccccc2c2c(C)c3cnccc3c(C)c21
inactive: [4] 100 % of control | [5] 115 % of control | [6] 115 % of control

NCCC1C2CC3CC(C2)CC1C3 (centres undefined)
inactive: [1] 88 % of control | [2] 88 % of control

COC(=O)N1C(C#N)=CCc2ccccc21
inactive: [10] 94 % of control | [11] 108 % of control | [12] 97 % of control

CC1=CC(C)CN(C)C1 (centres undefined)
inactive: dose: 6.25 mg/kg/injection, schedule: Q01DX005 (ip), vehicle: saline 102 % of control | dose: 12.5 mg/kg/injection, schedule: Q01DX005 (ip), vehicle: saline 100 % of control | dose: 25.0 mg/kg/injection, schedule: Q01DX005 (ip), vehicle: saline 105 % of control

C=CC1(C)CC(O)C2C(C)C(=O)OC2C1C(=C)C (centres undefined)
inactive: [5] 100 % of control | [6] 100 % of control | dose: 400.0 mg/kg/injection, schedule: Q01DX009 (ip), vehicle: saline with Tween-80 100 % of control

COc1ccc(C2CC(=O)C=C3c4ccc(OC)cc4CCC32)cc1 (centres undefined)
inactive: [14] 91 % of control | [15] 91 % of control

CCCCCCCCCCC(CCCCCCCCCC)c1ccccc1
inactive: dose: 75.0 mg/kg/injection, schedule: Q01DX001 (ip), vehicle: saline sonified 91 % of control | dose: 150.0 mg/kg/injection, schedule: Q01DX001 (ip), vehicle: saline sonified 95 % of control | dose: 300.0 mg/kg/injection, schedule: Q01DX001 (ip), vehicle: saline sonified 95 % of control

CC1CC(C(=O)c2ccoc2)C(=O)O1 (centres undefined)
inactive: dose: 12.5 mg/kg/injection, schedule: Q01DX005 (ip), vehicle: saline with Tween-80 92 % of control | dose: 25.0 mg/kg/injection, schedule: Q01DX005 (ip), vehicle: saline with Tween-80 97 % of control | dose: 50.0 mg/kg/injection, schedule: Q01DX005 (ip), vehicle: saline with Tween-80 101 % of control and 91 % of control

CC(=O)Nc1c(Br)cc(Br)c2c1C(=O)c1ccccc1-2
inactive: [7] 91 % of control | [8] 91 % of control | [9] 97 % of control
